Like-named read-outs stand apart in the source and are kept apart here.
Biological target: T1, rat mGluR5 (Rattus norvegicus, UniProt P31424)
T1 construct: expressed in transfected cells; host or cells: human embryonic kidney (HEK) cells
Assay: potentiation of mGluR5 response to glutamate, Ca2+ fluorescence (FDSS) in HEK cells transfected with rat mGluR5
Format: cell-based
Details: for EC50: read-out: EC50
Procedure: Human embryonic kidney (HEK) cells transfected with rat mGluR5 were plated in clear bottom assay plates for assay in a Functional Drug Screening System (FDSS). The cells were loaded with a Ca^2+-sensitive fluorescent dye (e.g., Fluo-4), and the plates were washed and placed in the FDSS instrument. After establishment of a fluorescence baseline for twelve seconds, the compounds of the present invention were added to the cells, and the response in cells was measured. Five minutes later, an mGluR5 agonist (e.g., glutamate, 3,5-dihydroxyphenylglycine, or quisqualate) was added to the cells, and the response of the cells was measured. Potentiation of the agonist response of mGluR5 by the compounds in the present invention was observed as an increase in response to non-maximal concentrations of agonist (here, glutamate) in the presence of compound compared to the response to agonist in the absence of compound.
The above described assay operated in two modes. In the first mode, a range of concentrations of the present compounds were added to cells, followed by a single fixed concentration of agonist. If a compound acted as a potentiator, an EC50 value for potentiation and a maximum extent of potentiation by the compound at this concentration of agonist was determined by non-linear curve fitting. In the second mode, several fixed concentrations of the present compounds were added to various wells on a plate, followed by a range of concentrations of agonist for each concentration of present compound; the EC50 values for the agonist at each concentration of compound were determined by non-linear curve fitting. A decrease in the EC50 value of the agonist with increasing concentrations of the present compounds (a leftward shift of the agonist concentration-response curve) is an indication of the degree of mGluR5 potentiation at a given concentration of the present compound. An increase in the EC50 value of the agonist with increasing concentrations of the present compounds (a rightward shift of the agonist concentration-response curve) is an indication of the degree of mGluR5 antagonism at a given concentration of the present compound. The second mode also indicates whether the present compounds also affect the maximum response to mGluR5 to agonists.
Human embryonic kidney (HEK) cells transfected with rat mGluR5 were plated in clear-bottomed, poly-D-lysine-coated assay plates in glutamate-glutamine-free medium growth and incubated overnight at 37° C. in 5% CO2. The following day, cells were loaded with 2 μM calcium indicator dye, fluo-4 AM, for 1 h at 37° C. Dye was removed and replaced with assay buffer containing 1× Hanks balanced salt solution (Invitrogen, Carlsbad, Calif.), 20 mM HEPES, and 2.5 mM probenecid, pH 7.4. Cell plates were then loaded into the Functional Drug Screening System 6000 (FDSS 6000, Hamamatsu, Japan). After establishment of a fluorescence baseline for twelve seconds, the compounds of the present invention were added to the cells, and the response in cells was measured. Five minutes later, an mGluR5 agonist (e.g., glutamate, 3,5-dihydroxyphenylglycine, or quisqualate) was added to the cells, and the response of the cells was measured during a 1 minute incubation with agonists. Typically, the effect of test compounds of the present invention was on an EC20 concentration of glutamate was measured. All test compounds were dissolved and diluted in 100% DMSO and then serially diluted into assay buffer for a 2.5× stock in 0.25% DMSO; stock compounds were then added to the assay for a final DMSO concentration of 0.1%. Calcium fluorescence measures were recorded as fold over basal fluorescence; raw data was then normalized to the maximal response to agonist. Potentiation of the agonist response of mGluR5 by the compounds in the present invention was observed as an increase in response to non-maximal concentrations of agonist (here, glutamate) in the presence of compound compared to the response to agonist in the absence of compound. […]

[1] = Table 1, EC50 for potentiating the mGluR5 receptor, unit inferred
[2] = HEK293, read-out: % Glu Max, maximum extent of potentiation, normalized to maximal response to glutamate, SAR tables
[3] = potentiation of glutamate response, HEK cells transfected with rat mGluR5, SAR tables
[4] = HEK293, maximum extent of potentiation, normalized to maximal response to glutamate, SAR tables, read-out: % Glu Max

T1 sequence (P31424 21-1203): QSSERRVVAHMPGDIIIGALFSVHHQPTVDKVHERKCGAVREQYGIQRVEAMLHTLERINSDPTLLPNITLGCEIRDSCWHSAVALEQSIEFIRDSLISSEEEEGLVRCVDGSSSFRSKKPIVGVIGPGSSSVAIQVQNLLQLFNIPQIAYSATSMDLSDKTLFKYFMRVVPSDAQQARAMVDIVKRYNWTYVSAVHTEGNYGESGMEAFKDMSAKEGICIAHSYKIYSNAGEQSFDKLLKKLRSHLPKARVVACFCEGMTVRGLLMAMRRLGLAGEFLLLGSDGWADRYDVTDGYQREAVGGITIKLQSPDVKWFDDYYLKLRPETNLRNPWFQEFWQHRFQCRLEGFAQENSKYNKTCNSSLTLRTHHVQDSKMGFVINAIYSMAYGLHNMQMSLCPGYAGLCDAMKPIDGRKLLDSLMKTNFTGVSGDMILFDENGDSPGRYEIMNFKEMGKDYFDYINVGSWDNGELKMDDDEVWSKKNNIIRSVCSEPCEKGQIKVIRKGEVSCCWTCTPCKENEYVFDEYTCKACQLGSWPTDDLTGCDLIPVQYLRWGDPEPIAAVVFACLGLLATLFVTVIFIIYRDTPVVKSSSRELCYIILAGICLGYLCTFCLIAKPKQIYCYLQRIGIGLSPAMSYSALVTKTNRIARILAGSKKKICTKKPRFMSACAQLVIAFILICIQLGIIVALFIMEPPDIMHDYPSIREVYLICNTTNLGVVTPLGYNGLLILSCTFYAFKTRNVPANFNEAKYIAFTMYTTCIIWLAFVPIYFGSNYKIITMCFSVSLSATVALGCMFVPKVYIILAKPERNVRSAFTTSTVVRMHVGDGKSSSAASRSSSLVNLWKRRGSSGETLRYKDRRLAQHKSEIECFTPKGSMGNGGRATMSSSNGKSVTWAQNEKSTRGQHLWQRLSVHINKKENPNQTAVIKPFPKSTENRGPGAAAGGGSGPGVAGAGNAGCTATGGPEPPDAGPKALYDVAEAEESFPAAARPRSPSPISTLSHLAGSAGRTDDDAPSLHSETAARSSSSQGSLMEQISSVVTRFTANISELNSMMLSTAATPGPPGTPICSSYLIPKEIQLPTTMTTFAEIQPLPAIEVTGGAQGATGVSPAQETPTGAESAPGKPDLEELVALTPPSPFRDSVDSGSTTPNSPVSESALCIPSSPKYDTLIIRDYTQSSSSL

Compound	EC50 [1] [nM]	EC50 [3] [nM]	Emax [4] [%]	EC50 (nM) [3]	Emax [2] [%]
O=C(c1ccc(C#Cc2ccccc2)cc1)N1CCC2CCCCC2C1 (centres unmarked) [(octahydroisoquinolin-2(1H)-yl)(4-(phenylethynyl)phenyl)methanone]	593	–	–	–	–
CC1(O)CCN(C(=O)c2ccc(C#Cc3ccccc3)cc2)CC1 [Compound 7a, (4-hydroxy-4-methylpiperidin-1-yl)(4-(phenylethynyl)phenyl)methanone]	39.4	3.5	–	–	82.5
CC(C)C1(O)CCN(C(=O)c2ccc(C#Cc3ccccc3)cc2)CC1 [Compound 7c, (4-hydroxy-4-isopropylpiperidin-1-yl)(4-(phenylethynyl)phenyl)methanone]	1800	1770	–	–	89.1
O=C(c1ccc(C#Cc2ccccc2)cc1)N1CCC(O)(c2cccs2)CC1 [Compound 7d, (4-hydroxy-4-(thiophen-2-yl)piperidin-1-yl)(4-(phenylethynyl)phenyl)methanone]	1070	1000	–	–	95
O=C(c1ccc(C#Cc2ccccc2)cc1)N1CCC(O)(c2ccc(F)cc2)CC1 [Compound 7e]	–	1190	–	–	87
O=C(c1ccc(C#Cc2ccccc2)cc1)N1CCC(O)(c2cccc(F)c2)CC1 [Compound 7f]	–	1600	–	–	92
COc1ccc(C2(O)CCN(C(=O)c3ccc(C#Cc4ccccc4)cc3)CC2)cc1 [Compound 7g]	–	2450	–	–	91
O=C(c1ccc(C#Cc2ccccc2)cc1)N1CC(O)C1 [Compound 9a, (3-hydroxyazetidin-1-yl)(4-(phenylethynyl)phenyl)methanone]	314	212	67.3	–	–
CC1(O)CN(C(=O)c2ccc(C#Cc3ccccc3)cc2)C1 [Compound 9b, (3-hydroxy-3-methylazetidin-1-yl)(4-(phenylethynyl)phenyl)methanone]	119	89	82	–	–
CCCC1(O)CN(C(=O)c2ccc(C#Cc3ccccc3)cc2)C1 [Compound 9c, (3-hydroxy-3-propylazetidin-1-yl)(4-(phenylethynyl)phenyl)methanone]	500	423	59.8	–	–
O=C(c1ccc(C#Cc2ccccc2)cc1)N1CC(O)(c2cccs2)C1 [Compound 9d, (3-hydroxy-3-(thiophen-2-yl)azetidin-1-yl)(4-(phenylethynyl)phenyl)methanone]	1710	1470	43.7	–	–
O=C(c1ccc(C#Cc2ccccc2F)cc1)N1CCC(O)CC1 [Compound 19a, (4-((2-fluorophenyl)ethynyl)phenyl)(4-hydroxypiperidin-1-yl)methanone]	28.1	27.3	80	–	–
O=C(c1ccc(C#Cc2cccc(F)c2)cc1)N1CCC(O)CC1 [Compound 19b, (4-((3-fluorophenyl)ethynyl)phenyl)(4-hydroxypiperidin-1-yl)methanone]	3.25	3.25	77	–	–
O=C(c1ccc(C#Cc2ccc(F)cc2)cc1)N1CCC(O)CC1 [Compound 19c, (4-((4-fluorophenyl)ethynyl)phenyl)(4-hydroxypiperidin-1-yl)methanone]	15.2	14.7	63	–	–
O=C(c1ccc(C#Cc2ccc(F)c(F)c2)cc1)N1CCC(O)CC1 [Compound 19d, (4-((3,4-difluorophenyl)ethynyl)phenyl)(4-hydroxypiperidin-1-yl)methanone]	73.9	68.7	52	–	–
O=C(c1ccc(C#Cc2cc(F)cc(F)c2)cc1)N1CCC(O)CC1 [Compound 19e, (4-((3,5-difluorophenyl)ethynyl)phenyl)(4-hydroxypiperidin-1-yl)methanone]	1000	593	67	–	–
Cc1cc(C#Cc2ccc(C(=O)N3CCC(O)CC3)cc2)ccc1F [Compound 19f, (4-((4-fluoro-3-methylphenyl)ethynyl)phenyl)(4-hydroxypiperidin-1-yl)methanone]	832	500	76	–	–
O=C(c1ccc(C#Cc2ccc(F)cc2F)cc1)N1CCC(O)CC1 [Compound 19g, (4-((2,4-difluorophenyl)ethynyl)phenyl)(4-hydroxypiperidin-1-yl)methanone]	2030	1970	58	–	–
Cc1ccc(C#Cc2ccc(C(=O)N3CCC(O)CC3)cc2)cc1 [Compound 19h]	–	–	–	inactive	–
O=C(c1ccc(C#Cc2cccc(C(F)(F)F)c2)cc1)N1CCC(O)CC1 [Compound 19i, (4-hydroxypiperidin-1-yl)(4-((3-(trifluoromethyl)phenyl)ethynyl)phenyl)methanone]	2210	2060	68	–	–

Further lines, with some results ahead:

EC50 [1] [nM]	EC50 [3] [nM]	Emax [4] [%]	EC50 (nM) [3]	Compound	Emax [2] [%]
2450	2210	49	–	O=C(c1ccc(C#Cc2ccccn2)cc1)N1CCC(O)CC1 [Compound 19k]	–
1870	1790	77	–	O=C(c1ccc(C#CC2CCCCC2)cc1)N1CCC(O)CC1 [Compound 19m, (4-(cyclohexylethynyl)phenyl)(4-hydroxypiperidin-1-yl)methanone]	–
37.9	34.9	86	–	CC1(O)CCN(C(=O)c2ccc(C#Cc3ccccc3F)cc2)CC1 [Compound 20a, (4-((2-fluorophenyl)ethynyl)phenyl)(4-hydroxy-4-methylpiperidin-1-yl)methanone]	–
20.6	19.4	92	–	CC1(O)CCN(C(=O)c2ccc(C#Cc3cccc(F)c3)cc2)CC1 [Compound 20b, (4-((3-fluorophenyl)ethynyl)phenyl)(4-hydroxy-4-methylpiperidin-1-yl)methanone]	–
54.2	39.4	91	–	CC1(O)CCN(C(=O)c2ccc(C#Cc3ccc(F)cc3)cc2)CC1 [Compound 20c, (4-((4-fluorophenyl)ethynyl)phenyl)(4-hydroxy-4-methylpiperidin-1-yl)methanone]	–
156	137	91	–	CC1(O)CCN(C(=O)c2ccc(C#Cc3ccc(F)c(F)c3)cc2)CC1 [Compound 20d, (4-((3,4-difluorophenyl)ethynyl)phenyl)(4-hydroxy-4-methylpiperidin-1-yl)methanone]	–
23.6	20.6	88	–	O=C(c1ccc(C#Cc2ccccc2F)cc1)N1CCC(CO)CC1 [Compound 20e, (4-((2-fluorophenyl)ethynyl)phenyl)(4-(hydroxymethyl)piperidin-1-yl)methanone]	–
11.9	11.9	86	–	O=C(c1ccc(C#Cc2cccc(F)c2)cc1)N1CCC(CO)CC1 [Compound 20f, (4-((3-fluorophenyl)ethynyl)phenyl)(4-(hydroxymethyl)piperidin-1-yl)methanone]	–
26.1	24.7	95	–	O=C(c1ccc(C#Cc2ccc(F)cc2)cc1)N1CCC(CO)CC1 [Compound 20g, (4-((4-fluorophenyl)ethynyl)phenyl)(4-(hydroxymethyl)piperidin-1-yl)methanone]	–
81.7	76.3	104	–	O=C(c1ccc(C#Cc2ccc(F)c(F)c2)cc1)N1CCC(CO)CC1 [Compound 20h, (4-((3,4-difluorophenyl)ethynyl)phenyl)(4-(hydroxymethyl)piperidin-1-yl)methanone]	–

Reference: patent US8853392B2, “Benzamide mGluR5 positive allosteric modulators and methods of making and using same” (Vanderbilt University, priority 2007, dated 2014)
